Test system: reverse cholesterol transport pathway (RCTP)
Assay: modulation of the reverse cholesterol transport pathway (RCTP); modified in vivo assay (MIVA), release of labeled cholesterol from loaded cells
Conditions: general statement in the description; the data are only in FIGS. 1-8, values not given
Experimental: In another embodiment, the invention includes a method of loading of cells, (e.g., macrophages in culture) with labeled cholesterol, e.g., radiolabeled cholesterol, by exposing the cells to autologous red cell membrane fragments which have been equilibrated with labeled cholesterol. The exposed cells phagocytose the red cell membrane fragments and internalize and store the labeled cholesterol becoming, in effect, foam cells. These ‘loaded’ cells are then administered, e.g., intraveneously injected, into a subject and allowed to distribute throughout the subject and settle within its organs (e.g., heart, lung, kidney, liver). A base level of cholesterol release is observed. After an appropriate length of time, the subject is treated with the test agent, or compound of interest and the release of label (e.g., labeled cholesterol) is measured and/or monitored as a function of time, dose, or dosing regimen. The appropriate length of time may be approximately twenty four hours, although it may also be longer or shorter, if so desired.
Stimulation of cholesterol release from the introduced loaded cells results in a transient increase in the amount of circulating label over baseline. Measurement of the kinetics of label release is carried out by direct analysis of samples of circulating whole blood, plasma, serum, feces, urine, saliva and/or cerebral spinal fluid. […]

Compound: CCCCCCCCCC[Si](C)(C)CCC(=O)NC(Cc1ccc(C)cc1)c1ccccc1 (stereo not shown) [Sandoz 58-035]
- effectiveness in modulation of the RCTP: effective in modulation of the RCTP

— patent US20090016956A1, “Labeled Macrophages and Methods of Use Thereof” (priority 2007, published 2009)
